# How the values were obtained:
# Type in all cases: in vivo
# [1] = system: ivyleaf morningglory (Ipomoea hederacea, IPOHE); test: Post-emerge test, greenhouse herbicide activity screening; details: phytotoxicity rating 0-100 (0 no damage, 100 complete death), 14 days after application
# Outline: (§1)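 Compounds in acetone were track-sprayed at 187 l/ha, 15–1000 g ai/ha, onto sandy loam pots. Pre-emerge seeds were sown one day before spraying, with surface watering afterwards. Post-emerge plants were at the 2–3 leaf stage and sprayed with 0.25% v/v non-ionic surfactant. Injury was rated 0–100 at 14 days.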
# [2] = system: velvetleaf (Abutilon theophrasti, ABUTH); test: as above; details: phytotoxicity rating 0-100 (0 no damage, 100 complete death), 14 days after application
# Outline: as §1
# [3] = system: green foxtail (Setaria viridis, SETVI); test: as above; details: phytotoxicity rating 0-100 (0 no damage, 100 complete death), 14 days after application
# Outline: as §1
# [4] = system: large crabgrass (Digitaria sanguinalis, DIGSA); test: as above; details: phytotoxicity rating 0-100 (0 no damage, 100 complete death), 14 days after application
# Outline: as §1
# [5] = system: sicklepod (Cassia obtusifolia, CASOB); test: as above; details: phytotoxicity rating 0-100 (0 no damage, 100 complete death), 14 days after application
# Outline: as §1
# [6] = system: barnyardgrass (Echinochloa crus-galli, ECHCG); test: as above; details: phytotoxicity rating 0-100 (0 no damage, 100 complete death), 14 days after application
# Outline: as §1
# [7] = system: johnsongrass (Sorghum halepense, SORHA); test: as above; details: phytotoxicity rating 0-100 (0 no damage, 100 complete death), 14 days after application
# Outline: as §1
# [8] = system: common ragweed (Ambrosia artemisizfolia L., AMBEL); test: as above; details: phytotoxicity rating 0-100 (0 no damage, 100 complete death), 14 days after application
# Outline: as §1
# [9] = system: lambsquarters (Chenopodium album, CHEAL); test: as above; details: phytotoxicity rating 0-100 (0 no damage, 100 complete death), 14 days after application
# Outline: as §1
# [10] = system: redroot pigweed (Amaranthus retroflexus, AMARE); test: as above; details: phytotoxicity rating 0-100 (0 no damage, 100 complete death), 14 days after application
# Outline: as §1
# [11] = system: ivyleaf morningglory (Ipomoea hederacea, IPOHE); test: Pre-emerge test, greenhouse herbicide activity screening; details: pre-emerge, rated 14 days after application, 0 = no damage, 100 = complete death
# Outline: (§2)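 Visual ratings on a 0-100 scale (0 no damage, 100 all plants dead) were taken at 14 days after treatment. Rates of 15-1000 g ai/ha in acetone, 187 l/ha, were sprayed onto soil one day after planting (pre-emerge) or onto 2-3 leaf plants with 0.25% v/v surfactant (post-emerge).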
# [12] = system: velvetleaf (Abutilon theophrasti, ABUTH); test: as above; details: pre-emerge, rated 14 days after application, 0 = no damage, 100 = complete death
# Outline: as §2
# [13] = system: green foxtail (Setaria viridis, SETVI); test: as above; details: pre-emerge, rated 14 days after application, 0 = no damage, 100 = complete death
# Outline: as §2
# [14] = system: large crabgrass (Digitaria sanguinalis, DIGSA); test: as above; details: pre-emerge, rated 14 days after application, 0 = no damage, 100 = complete death
# Outline: as §2
# [15] = system: sicklepod (Cassia obtusifolia, CASOB); test: as above; details: pre-emerge, rated 14 days after application, 0 = no damage, 100 = complete death
# Outline: as §2
# [16] = system: barnyardgrass (Echinochloa crus-galli, ECHCG); test: as above; details: pre-emerge, rated 14 days after application, 0 = no damage, 100 = complete death
# Outline: as §2
# [17] = system: johnsongrass (Sorghum halepense, SORHA); test: as above; details: pre-emerge, rated 14 days after application, 0 = no damage, 100 = complete death
# Outline: as §2
# [18] = system: lambsquarters (Chenopodium album, CHEAL); test: as above; details: pre-emerge, rated 14 days after application, 0 = no damage, 100 = complete death
# Outline: as §2
# [19] = system: redroot pigweed (Amaranthus retroflexus, AMARE); test: as above; details: pre-emerge, rated 14 days after application, 0 = no damage, 100 = complete death
# Outline: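 Herbicidal damage is scored 0 (none) to 100 (complete plant death) two weeks after a simulated field spray. Rates span 15–1000 g ai/ha, delivered in acetone at 187 l/ha. For post-emergence treatments, plants have 2–3 leaves and the spray carries 0.25% v/v non-ionic surfactant.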
# [20] = system: field corn (Zea mays L., var. Dekalb 535, CORN); test: Post-emerge test, crop safety; details: phytotoxicity rating 0-100 (0 no damage, 100 complete death), 14 days after application
# Outline: as §2
# [21] = system: upland rice (Oryza sp., var. Tebonnet, RICE); test: Post-emerge test, crop safety; details: phytotoxicity rating 0-100 (0 no damage, 100 complete death), 14 days after application
# Outline: as §2
# [22] = system: field corn (Zea mays L., var. Dekalb 535, CORN); test: Pre-emerge test, crop safety; details: pre-emerge, rated 14 days after application, 0 = no damage, 100 = complete death
# Outline: (§3)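 Applied at 15–1000 g ai/ha from acetone in 187 l/ha spray volume. Post-emergence applications included 0.25% v/v non-ionic surfactant and reached plants sown 8–21 days before. Pre-emergence applications were incorporated by surface watering. Efficacy or crop damage was rated on a 0–100 scale after 14 days.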
# [23] = system: upland rice (Oryza sp., var. Tebonnet, RICE); test: Pre-emerge test, crop safety; details: pre-emerge, rated 14 days after application, 0 = no damage, 100 = complete death
# Outline: as §3
compound,measurement,setting,value
CCn1c(C(F)(F)F)cc(=O)n(-c2c(F)cc(Cl)c(OC)c2N)c1=O [Compound 1-15],Post-emerge Herbicidal Activity IPOHE,[1]; 63 g ai/ha,0
same,Post-emerge Herbicidal Activity IPOHE,[1]; 250 g ai/ha,40
same,Post-emerge Herbicidal Activity ABUTH,[2]; 63 g ai/ha,30
same,Post-emerge Herbicidal Activity ABUTH,[2]; 250 g ai/ha,50
same,Post-emerge Herbicidal Activity SETVI,[3]; 63 g ai/ha,0
same,Post-emerge Herbicidal Activity SETVI,[3]; 250 g ai/ha,0
same,Post-emerge Herbicidal Activity DIGSA,[4]; 63 g ai/ha,0
same,Post-emerge Herbicidal Activity DIGSA,[4]; 250 g ai/ha,0
same,Post-emerge Herbicidal Activity CASOB,[5]; 63 g ai/ha,0
same,Post-emerge Herbicidal Activity CASOB,[5]; 250 g ai/ha,0
same,Post-emerge Herbicidal Activity ECHCG,[6]; 63 g ai/ha,0
same,Post-emerge Herbicidal Activity ECHCG,[6]; 250 g ai/ha,0
same,Post-emerge Herbicidal Activity SORHA,[7]; 63 g ai/ha,0
same,Post-emerge Herbicidal Activity SORHA,[7]; 250 g ai/ha,0
same,Post-emerge Herbicidal Activity AMBEL,[8]; 63 g ai/ha,0
same,Post-emerge Herbicidal Activity AMBEL,[8]; 250 g ai/ha,0
same,Post-emerge Herbicidal Activity CHEAL,[9]; 63 g ai/ha,0
same,Post-emerge Herbicidal Activity CHEAL,[9]; 250 g ai/ha,20
same,Post-emerge Herbicidal Activity AMARE,[10]; 63 g ai/ha,0
same,Post-emerge Herbicidal Activity AMARE,[10]; 250 g ai/ha,30
same,"Pre-emerge Herbicidal Activity IPOHE (phytotoxicity rating, scale 0-100)",[11]; 63 g ai/ha,0
same,"Pre-emerge Herbicidal Activity IPOHE (phytotoxicity rating, scale 0-100)",[11]; 250 g ai/ha,0
same,"Pre-emerge Herbicidal Activity ABUTH (phytotoxicity rating, scale 0-100)",[12]; 63 g ai/ha,20
same,"Pre-emerge Herbicidal Activity ABUTH (phytotoxicity rating, scale 0-100)",[12]; 250 g ai/ha,90
same,"Pre-emerge Herbicidal Activity SETVI (phytotoxicity rating, scale 0-100)",[13]; 63 g ai/ha,70
same,"Pre-emerge Herbicidal Activity SETVI (phytotoxicity rating, scale 0-100)",[13]; 250 g ai/ha,80
same,"Pre-emerge Herbicidal Activity DIGSA (phytotoxicity rating, scale 0-100)",[14]; 63 g ai/ha,0
same,"Pre-emerge Herbicidal Activity DIGSA (phytotoxicity rating, scale 0-100)",[14]; 250 g ai/ha,90
same,"Pre-emerge Herbicidal Activity CASOB (phytotoxicity rating, scale 0-100)",[15]; 63 g ai/ha,0
same,"Pre-emerge Herbicidal Activity CASOB (phytotoxicity rating, scale 0-100)",[15]; 250 g ai/ha,0
same,"Pre-emerge Herbicidal Activity ECHCG (phytotoxicity rating, scale 0-100)",[16]; 63 g ai/ha,0
same,"Pre-emerge Herbicidal Activity ECHCG (phytotoxicity rating, scale 0-100)",[16]; 250 g ai/ha,0
same,"Pre-emerge Herbicidal Activity SORHA (phytotoxicity rating, scale 0-100)",[17]; 63 g ai/ha,0
same,"Pre-emerge Herbicidal Activity SORHA (phytotoxicity rating, scale 0-100)",[17]; 250 g ai/ha,20
same,"Pre-emerge Herbicidal Activity CHEAL (phytotoxicity rating, scale 0-100)",[18]; 63 g ai/ha,40
same,"Pre-emerge Herbicidal Activity CHEAL (phytotoxicity rating, scale 0-100)",[18]; 250 g ai/ha,50
same,"Pre-emerge Herbicidal Activity AMARE (phytotoxicity rating, scale 0-100)",[19]; 63 g ai/ha,0
same,"Pre-emerge Herbicidal Activity AMARE (phytotoxicity rating, scale 0-100)",[19]; 250 g ai/ha,20
same,Post-emerge Herbicidal Activity CORN (crop damage),[20]; 63 g ai/ha,0
same,Post-emerge Herbicidal Activity CORN (crop damage),[20]; 250 g ai/ha,0
same,Post-emerge Herbicidal Activity RICE (crop damage),[21]; 63 g ai/ha,0
same,Post-emerge Herbicidal Activity RICE (crop damage),[21]; 250 g ai/ha,0
same,"Pre-emerge crop damage CORN (phytotoxicity rating, scale 0-100)",[22]; 63 g ai/ha,0
same,"Pre-emerge crop damage CORN (phytotoxicity rating, scale 0-100)",[22]; 250 g ai/ha,0
same,"Pre-emerge crop damage RICE (phytotoxicity rating, scale 0-100)",[23]; 63 g ai/ha,10
same,"Pre-emerge crop damage RICE (phytotoxicity rating, scale 0-100)",[23]; 250 g ai/ha,30
COc1c(Cl)cc(F)c(-n2c(=O)cc(C(F)(F)F)n(C)c2=O)c1N=C(Cl)C(Cl)(Cl)Cl [Compound 1-30],Post-emerge Herbicidal Activity IPOHE,[1]; 63 g ai/ha,20
same,Post-emerge Herbicidal Activity IPOHE,[1]; 250 g ai/ha,100
same,Post-emerge Herbicidal Activity ABUTH,[2]; 63 g ai/ha,30
same,Post-emerge Herbicidal Activity ABUTH,[2]; 250 g ai/ha,100
same,Post-emerge Herbicidal Activity SETVI,[3]; 63 g ai/ha,0
same,Post-emerge Herbicidal Activity SETVI,[3]; 250 g ai/ha,0
same,Post-emerge Herbicidal Activity DIGSA,[4]; 63 g ai/ha,0
same,Post-emerge Herbicidal Activity DIGSA,[4]; 250 g ai/ha,0
same,Post-emerge Herbicidal Activity CASOB,[5]; 63 g ai/ha,0
same,Post-emerge Herbicidal Activity CASOB,[5]; 250 g ai/ha,30
same,Post-emerge Herbicidal Activity ECHCG,[6]; 63 g ai/ha,0
same,Post-emerge Herbicidal Activity ECHCG,[6]; 250 g ai/ha,0
same,Post-emerge Herbicidal Activity SORHA,[7]; 63 g ai/ha,0
same,Post-emerge Herbicidal Activity SORHA,[7]; 250 g ai/ha,0
same,Post-emerge Herbicidal Activity AMBEL,[8]; 63 g ai/ha,0
same,Post-emerge Herbicidal Activity AMBEL,[8]; 250 g ai/ha,70
same,Post-emerge Herbicidal Activity CHEAL,[9]; 63 g ai/ha,0
same,Post-emerge Herbicidal Activity CHEAL,[9]; 250 g ai/ha,60
same,Post-emerge Herbicidal Activity AMARE,[10]; 63 g ai/ha,10
same,Post-emerge Herbicidal Activity AMARE,[10]; 250 g ai/ha,30
same,"Pre-emerge Herbicidal Activity IPOHE (phytotoxicity rating, scale 0-100)",[11]; 63 g ai/ha,0
same,"Pre-emerge Herbicidal Activity IPOHE (phytotoxicity rating, scale 0-100)",[11]; 250 g ai/ha,70
same,"Pre-emerge Herbicidal Activity ABUTH (phytotoxicity rating, scale 0-100)",[12]; 63 g ai/ha,50
same,"Pre-emerge Herbicidal Activity ABUTH (phytotoxicity rating, scale 0-100)",[12]; 250 g ai/ha,100
same,"Pre-emerge Herbicidal Activity SETVI (phytotoxicity rating, scale 0-100)",[13]; 63 g ai/ha,10
same,"Pre-emerge Herbicidal Activity SETVI (phytotoxicity rating, scale 0-100)",[13]; 250 g ai/ha,100
same,"Pre-emerge Herbicidal Activity DIGSA (phytotoxicity rating, scale 0-100)",[14]; 63 g ai/ha,0
same,"Pre-emerge Herbicidal Activity DIGSA (phytotoxicity rating, scale 0-100)",[14]; 250 g ai/ha,90
same,"Pre-emerge Herbicidal Activity CASOB (phytotoxicity rating, scale 0-100)",[15]; 63 g ai/ha,0
same,"Pre-emerge Herbicidal Activity CASOB (phytotoxicity rating, scale 0-100)",[15]; 250 g ai/ha,70
same,"Pre-emerge Herbicidal Activity ECHCG (phytotoxicity rating, scale 0-100)",[16]; 63 g ai/ha,0
same,"Pre-emerge Herbicidal Activity ECHCG (phytotoxicity rating, scale 0-100)",[16]; 250 g ai/ha,0
same,"Pre-emerge Herbicidal Activity SORHA (phytotoxicity rating, scale 0-100)",[17]; 63 g ai/ha,0
same,"Pre-emerge Herbicidal Activity SORHA (phytotoxicity rating, scale 0-100)",[17]; 250 g ai/ha,10
same,"Pre-emerge Herbicidal Activity CHEAL (phytotoxicity rating, scale 0-100)",[18]; 63 g ai/ha,85
same,"Pre-emerge Herbicidal Activity CHEAL (phytotoxicity rating, scale 0-100)",[18]; 250 g ai/ha,100
same,"Pre-emerge Herbicidal Activity AMARE (phytotoxicity rating, scale 0-100)",[19]; 63 g ai/ha,0
same,"Pre-emerge Herbicidal Activity AMARE (phytotoxicity rating, scale 0-100)",[19]; 250 g ai/ha,60
same,Post-emerge Herbicidal Activity CORN (crop damage),[20]; 63 g ai/ha,0
same,Post-emerge Herbicidal Activity CORN (crop damage),[20]; 250 g ai/ha,10
same,Post-emerge Herbicidal Activity RICE (crop damage),[21]; 63 g ai/ha,0
same,Post-emerge Herbicidal Activity RICE (crop damage),[21]; 250 g ai/ha,20
same,"Pre-emerge crop damage CORN (phytotoxicity rating, scale 0-100)",[22]; 63 g ai/ha,0
same,"Pre-emerge crop damage CORN (phytotoxicity rating, scale 0-100)",[22]; 250 g ai/ha,10
same,"Pre-emerge crop damage RICE (phytotoxicity rating, scale 0-100)",[23]; 63 g ai/ha,10
same,"Pre-emerge crop damage RICE (phytotoxicity rating, scale 0-100)",[23]; 250 g ai/ha,30

# Source: patent publication US6355799B1, “Substituted benzene compounds, process for their preparation, and herbicidal and defoliant compositions containing them” (ISK Americas Incorporated, priority 1997, dated 2002)
